Our source for the IC50 values is BindingDB's records for doi:10.1021/jm00089a028 (1992).

In this test the target is Endothelin receptor type B (Sus scrofa). The experiment in a line: Binding activity against Endothelin B receptor 0f Porcine cerebellum membranes.

Residues, ends and D or L forms follow the SMILES beside them.

`CC[C@H](C)[C@H]1NC(=O)[C@H](C)NC(=O)[C@@H](CCC(=O)O)NC(=O)[C@@H](Cc2c[nH]c3ccccc23)NC(=O)[C@H](CC(C)C)NC1=O` (HELM PEPTIDE1{A.[CC[C@H](C)[C@@H](N[*:1])C(=O)[*:2]].L.[dW].[dE]}$PEPTIDE1,PEPTIDE1,1:R1-5:R2$$$V2.0) came in with an IC50 above 100 µM. The result for `CC(C)[C@H]1NC(=O)[C@H](C)NC(=O)[C@@H](CC(=O)O)NC(=O)[C@@H](Cc2c[nH]c3ccccc23)NC(=O)[C@@H]2CCCN2C1=O` (HELM PEPTIDE1{A.[dV].P.[dW].[dD]}$PEPTIDE1,PEPTIDE1,1:R1-5:R2$$$V2.0) reads above 100 µM; that for `CC(C)C[C@@H]1NC(=O)[C@@H](C(C)C)NC(=O)CN(C)C(=O)[C@@H](CC(=O)O)NC(=O)[C@@H](Cc2c[nH]c3ccccc23)NC1=O` (HELM PEPTIDE1{L.[dW].[dD].[Sar].[dV]}$PEPTIDE1,PEPTIDE1,1:R1-5:R2$$$V2.0), 30 µM. As for `CC(C)C[C@@H]1NC(=O)[C@@H](C(C)C)NC(=O)[C@H](C)N(C)C(=O)[C@@H](CC(=O)O)NC(=O)[C@@H](Cc2c[nH]c3ccccc23)NC1=O` (HELM PEPTIDE1{L.[dW].[dD].[meA].[dV]}$PEPTIDE1,PEPTIDE1,1:R1-5:R2$$$V2.0), the IC50 worked out at 47 µM. The result for `CC(C)C[C@@H]1NC(=O)[C@@H](C(C)C)NC(=O)[C@@H]2CCCN2C(=O)[C@@H](CCC(=O)O)NC(=O)[C@@H](Cc2c[nH]c3ccccc23)NC1=O` (HELM PEPTIDE1{L.[dW].[dE].P.[dV]}$PEPTIDE1,PEPTIDE1,1:R1-5:R2$$$V2.0) reads above 100 µM.
